Measured values taken from the kinase profiling compilation of Christmann-Franck et al. (2016).
Blank lines part the entries; values can stand above or below the compound they belong to.

Legend:
Experiment in all cases: radiometric filter-binding kinase assay, Kinase HotSpot
Settings in all cases: compound 0.5 µM; ATP 10 µM
AURKA (human) = AURKA (human) (UniProt O14965)
AURKB (human) = AURKB (human) (UniProt Q96GD4)
CAMK2G (human) = CAMK2G (human) (UniProt Q13555)
CLK4 (human) = CLK4 (human) (UniProt Q9HAZ1)
DAPK3 (human) = DAPK3 (human) (UniProt O43293)
EPHB1 (human) = EPHB1 (human) (UniProt P54762)
ERBB4 (human) = ERBB4 (human) (UniProt Q15303)
FGFR2 (human) = FGFR2 (human) (UniProt P21802)
FGFR3 (human) = FGFR3 (human) (UniProt P22607)
FLT3 (human) = FLT3 (human) (UniProt P36888)
FRK (human) = FRK (human) (UniProt P42685)
GRK4 (human) = GRK4 (human) (UniProt P32298)
GRK7 (human) = GRK7 (human) (UniProt Q8WTQ7)
GSK3B (human) = GSK3B (human) (UniProt P49841)
INSRR (human) = INSRR (human) (UniProt P14616)
IRAK1 (human) = IRAK1 (human) (UniProt P51617)
JAK3 JH1 JH2 (human) = JAK3 JH1 JH2 (human) (UniProt P52333)
MAP3K9 (human) = MAP3K9 (human) (UniProt P80192)
MAPK10 (human) = MAPK10 (human) (UniProt P53779)
MAPK13 (human) = MAPK13 (human) (UniProt O15264)
MAPK14 (human) = MAPK14 (human) (UniProt Q16539)
MAPK3 (human) = MAPK3 (human) (UniProt P27361)
MARK1 (human) = MARK1 (human) (UniProt Q9P0L2)
MARK2 (human) = MARK2 (human) (UniProt Q7KZI7)
MARK3 (human) = MARK3 (human) (UniProt P27448)
MYLK2 (human) = MYLK2 (human) (UniProt Q9H1R3)
PAK6 (human) = PAK6 (human) (UniProt Q9NQU5)
PHKG1 (human) = PHKG1 (human) (UniProt Q16816)
PHKG2 (human) = PHKG2 (human) (UniProt P15735)
PIM2 (human) = PIM2 (human) (UniProt Q9P1W9)
PKN1 (human) = PKN1 (human) (UniProt Q16512)
PLK3 (human) = PLK3 (human) (UniProt Q9H4B4)
PNCK (human) = PNCK (human) (UniProt Q6P2M8)
PRKCB1 (human) = PRKCB1 (human) (UniProt P05771)
PRKCG (human) = PRKCG (human) (UniProt P05129)
PRKCZ (human) = PRKCZ (human) (UniProt Q05513)
PTK2 (human) = PTK2 (human) (UniProt Q05397)
RPS6KA5 KD2 (human) = RPS6KA5 KD2 (human) (UniProt O75582)
SIK2 (human) = SIK2 (human) (UniProt Q9H0K1)
ULK1 (human) = ULK1 (human) (UniProt O75385)
WEE1 (human) = WEE1 (human) (UniProt P30291)
WNK3 (human) = WNK3 (human) (UniProt Q9BYP7)

Chain of FGFR2 (human) (P21802 whole entry, looked up): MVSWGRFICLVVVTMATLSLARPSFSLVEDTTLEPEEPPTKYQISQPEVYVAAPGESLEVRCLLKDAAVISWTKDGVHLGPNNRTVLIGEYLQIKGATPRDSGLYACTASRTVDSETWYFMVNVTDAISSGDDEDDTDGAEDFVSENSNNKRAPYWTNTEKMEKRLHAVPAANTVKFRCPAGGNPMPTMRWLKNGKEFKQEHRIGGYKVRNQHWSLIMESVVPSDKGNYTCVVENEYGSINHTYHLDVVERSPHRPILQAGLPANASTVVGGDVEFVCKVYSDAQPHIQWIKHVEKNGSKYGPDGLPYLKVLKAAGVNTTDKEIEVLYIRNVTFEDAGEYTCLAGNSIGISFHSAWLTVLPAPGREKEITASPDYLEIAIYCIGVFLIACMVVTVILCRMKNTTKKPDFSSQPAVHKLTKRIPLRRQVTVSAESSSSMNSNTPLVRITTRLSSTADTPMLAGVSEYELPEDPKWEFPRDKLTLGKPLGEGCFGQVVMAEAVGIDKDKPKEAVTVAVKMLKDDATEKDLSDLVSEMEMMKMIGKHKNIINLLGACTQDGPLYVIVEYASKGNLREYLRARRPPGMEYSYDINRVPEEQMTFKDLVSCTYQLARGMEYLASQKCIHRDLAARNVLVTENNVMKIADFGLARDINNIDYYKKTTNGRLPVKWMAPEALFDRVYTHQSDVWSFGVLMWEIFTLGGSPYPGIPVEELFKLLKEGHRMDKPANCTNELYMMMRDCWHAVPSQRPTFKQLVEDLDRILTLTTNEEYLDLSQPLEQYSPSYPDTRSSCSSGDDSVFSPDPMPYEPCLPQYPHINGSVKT
Chain of ULK1 (human) (O75385 whole entry, looked up): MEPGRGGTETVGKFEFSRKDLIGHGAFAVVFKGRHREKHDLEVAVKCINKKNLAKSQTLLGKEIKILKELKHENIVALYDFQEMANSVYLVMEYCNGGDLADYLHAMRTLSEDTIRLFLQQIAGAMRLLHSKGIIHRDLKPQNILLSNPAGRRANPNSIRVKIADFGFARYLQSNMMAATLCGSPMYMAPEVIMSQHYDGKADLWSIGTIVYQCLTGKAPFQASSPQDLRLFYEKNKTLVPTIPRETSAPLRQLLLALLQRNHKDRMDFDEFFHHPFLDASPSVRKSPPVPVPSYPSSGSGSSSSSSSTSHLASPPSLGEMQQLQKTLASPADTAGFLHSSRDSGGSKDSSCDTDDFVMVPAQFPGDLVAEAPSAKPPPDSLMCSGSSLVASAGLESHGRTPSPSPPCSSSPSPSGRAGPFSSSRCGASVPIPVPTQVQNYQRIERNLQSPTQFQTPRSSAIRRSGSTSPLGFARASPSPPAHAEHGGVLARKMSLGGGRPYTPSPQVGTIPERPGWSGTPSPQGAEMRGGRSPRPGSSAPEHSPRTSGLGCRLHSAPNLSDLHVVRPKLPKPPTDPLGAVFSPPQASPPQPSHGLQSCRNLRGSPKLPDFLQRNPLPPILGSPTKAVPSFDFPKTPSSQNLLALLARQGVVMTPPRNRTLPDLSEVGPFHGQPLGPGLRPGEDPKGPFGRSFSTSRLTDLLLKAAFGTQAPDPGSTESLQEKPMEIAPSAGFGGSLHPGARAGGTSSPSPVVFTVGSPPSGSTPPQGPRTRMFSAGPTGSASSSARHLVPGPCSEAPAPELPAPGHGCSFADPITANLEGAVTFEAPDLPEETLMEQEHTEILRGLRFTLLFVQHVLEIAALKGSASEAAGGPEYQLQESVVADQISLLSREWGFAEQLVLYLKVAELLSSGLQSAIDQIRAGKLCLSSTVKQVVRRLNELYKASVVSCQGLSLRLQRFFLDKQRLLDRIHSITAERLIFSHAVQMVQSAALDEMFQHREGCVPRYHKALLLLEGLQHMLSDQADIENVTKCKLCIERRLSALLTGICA
Chain of FLT3 (human) (P36888 whole entry, looked up): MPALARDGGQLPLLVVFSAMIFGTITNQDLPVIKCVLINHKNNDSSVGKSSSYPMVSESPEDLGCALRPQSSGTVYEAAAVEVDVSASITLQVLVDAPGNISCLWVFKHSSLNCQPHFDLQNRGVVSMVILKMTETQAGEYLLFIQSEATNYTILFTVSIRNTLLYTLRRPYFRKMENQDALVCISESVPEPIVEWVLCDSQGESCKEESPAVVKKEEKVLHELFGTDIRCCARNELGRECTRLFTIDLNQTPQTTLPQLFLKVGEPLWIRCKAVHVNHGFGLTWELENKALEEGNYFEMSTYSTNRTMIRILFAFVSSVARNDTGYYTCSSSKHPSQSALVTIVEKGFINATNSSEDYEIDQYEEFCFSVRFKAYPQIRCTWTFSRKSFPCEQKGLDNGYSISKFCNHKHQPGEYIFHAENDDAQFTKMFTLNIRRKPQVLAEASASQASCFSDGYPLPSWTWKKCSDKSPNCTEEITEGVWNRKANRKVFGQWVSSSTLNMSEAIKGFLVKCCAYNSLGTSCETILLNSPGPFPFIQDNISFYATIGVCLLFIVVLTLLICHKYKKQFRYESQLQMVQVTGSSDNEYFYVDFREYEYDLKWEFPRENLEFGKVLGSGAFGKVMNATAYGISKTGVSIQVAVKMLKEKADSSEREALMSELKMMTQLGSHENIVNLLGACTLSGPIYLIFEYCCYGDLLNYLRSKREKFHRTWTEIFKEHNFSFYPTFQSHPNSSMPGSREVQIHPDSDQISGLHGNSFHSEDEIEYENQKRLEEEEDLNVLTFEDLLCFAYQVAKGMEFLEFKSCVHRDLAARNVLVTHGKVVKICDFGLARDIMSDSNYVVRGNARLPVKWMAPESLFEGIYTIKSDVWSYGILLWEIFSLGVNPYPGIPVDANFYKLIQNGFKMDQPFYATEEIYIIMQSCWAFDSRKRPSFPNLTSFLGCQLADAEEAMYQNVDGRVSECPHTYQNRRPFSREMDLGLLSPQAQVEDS
Chain of PIM2 (human) (Q9P1W9 whole entry, looked up): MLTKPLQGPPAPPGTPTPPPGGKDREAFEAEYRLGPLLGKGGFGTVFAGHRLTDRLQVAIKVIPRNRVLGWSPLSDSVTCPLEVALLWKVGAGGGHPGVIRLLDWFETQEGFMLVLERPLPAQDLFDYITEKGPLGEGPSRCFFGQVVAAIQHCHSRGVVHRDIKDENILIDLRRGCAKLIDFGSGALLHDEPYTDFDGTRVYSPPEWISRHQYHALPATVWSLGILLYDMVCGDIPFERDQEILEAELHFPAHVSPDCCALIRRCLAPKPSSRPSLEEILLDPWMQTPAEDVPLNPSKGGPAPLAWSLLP
Chain of RPS6KA5 KD2 (human) (O75582 whole entry, looked up): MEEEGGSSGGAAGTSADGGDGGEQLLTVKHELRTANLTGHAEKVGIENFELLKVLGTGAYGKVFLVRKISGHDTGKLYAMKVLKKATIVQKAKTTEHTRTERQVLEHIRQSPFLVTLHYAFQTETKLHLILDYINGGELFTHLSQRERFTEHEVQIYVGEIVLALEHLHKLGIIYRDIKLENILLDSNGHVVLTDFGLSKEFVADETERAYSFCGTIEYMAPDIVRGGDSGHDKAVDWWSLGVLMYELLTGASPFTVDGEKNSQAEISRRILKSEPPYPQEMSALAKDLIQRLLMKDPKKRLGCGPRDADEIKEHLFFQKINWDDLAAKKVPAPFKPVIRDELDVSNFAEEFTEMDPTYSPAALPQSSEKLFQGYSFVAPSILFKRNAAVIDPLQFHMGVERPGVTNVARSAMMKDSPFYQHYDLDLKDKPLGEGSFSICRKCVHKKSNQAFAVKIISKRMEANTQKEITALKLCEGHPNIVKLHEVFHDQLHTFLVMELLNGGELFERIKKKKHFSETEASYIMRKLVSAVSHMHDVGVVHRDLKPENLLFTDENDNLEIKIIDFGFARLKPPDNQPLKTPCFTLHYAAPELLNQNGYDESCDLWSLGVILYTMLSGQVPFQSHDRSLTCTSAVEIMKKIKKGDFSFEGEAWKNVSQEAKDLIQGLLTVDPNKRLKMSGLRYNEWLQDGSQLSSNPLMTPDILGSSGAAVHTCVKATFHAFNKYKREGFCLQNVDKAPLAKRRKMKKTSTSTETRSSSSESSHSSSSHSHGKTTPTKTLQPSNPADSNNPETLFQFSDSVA
Chain of WEE1 (human) (P30291 whole entry, looked up): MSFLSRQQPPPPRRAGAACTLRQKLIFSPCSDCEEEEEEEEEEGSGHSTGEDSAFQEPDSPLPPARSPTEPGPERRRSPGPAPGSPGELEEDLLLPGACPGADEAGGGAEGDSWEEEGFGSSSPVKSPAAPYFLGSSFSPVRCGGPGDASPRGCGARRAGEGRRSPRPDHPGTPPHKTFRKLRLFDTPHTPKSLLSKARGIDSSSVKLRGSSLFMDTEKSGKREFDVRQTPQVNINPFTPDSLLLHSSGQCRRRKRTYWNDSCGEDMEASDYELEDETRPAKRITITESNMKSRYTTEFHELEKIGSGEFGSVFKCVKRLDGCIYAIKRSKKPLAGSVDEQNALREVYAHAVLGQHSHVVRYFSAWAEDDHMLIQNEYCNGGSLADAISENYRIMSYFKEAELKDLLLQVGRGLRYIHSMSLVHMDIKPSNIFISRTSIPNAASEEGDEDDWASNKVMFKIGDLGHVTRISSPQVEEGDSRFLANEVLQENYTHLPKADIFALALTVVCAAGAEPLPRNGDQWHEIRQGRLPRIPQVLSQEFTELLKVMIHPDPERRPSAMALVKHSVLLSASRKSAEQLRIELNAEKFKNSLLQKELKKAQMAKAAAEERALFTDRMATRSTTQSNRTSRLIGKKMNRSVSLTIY
Chain of AURKB (human) (Q96GD4 whole entry, looked up): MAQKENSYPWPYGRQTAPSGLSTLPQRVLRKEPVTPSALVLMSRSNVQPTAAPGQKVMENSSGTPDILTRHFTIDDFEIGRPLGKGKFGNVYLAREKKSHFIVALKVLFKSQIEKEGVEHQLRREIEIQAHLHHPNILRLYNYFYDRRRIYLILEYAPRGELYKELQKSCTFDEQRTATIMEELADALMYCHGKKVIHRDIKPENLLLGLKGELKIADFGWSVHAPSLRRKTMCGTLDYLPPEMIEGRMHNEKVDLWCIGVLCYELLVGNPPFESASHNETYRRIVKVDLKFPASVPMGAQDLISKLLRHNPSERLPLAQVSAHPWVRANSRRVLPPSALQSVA

SMILES: O=C(O)/C=C/c1cc(Br)c(Br)c(Br)c1Br
- residual activity (AURKA (human)): 77.2%
- residual activity (AURKB (human)): 88.5%
- residual activity (CAMK2G (human)): 104%
- residual activity (CLK4 (human)): 45.4%
- residual activity (DAPK3 (human)): 90.2%
- residual activity (EPHB1 (human)): 95.2%
- residual activity (ERBB4 (human)): 104%
- residual activity (FGFR2 (human)): 99.5%
- residual activity (FGFR3 (human)): 94.9%
- residual activity (FLT3 (human)): 79%
- residual activity (FRK (human)): 102%
- residual activity (GRK4 (human)): 101%
- residual activity (GRK7 (human)): 105%
- residual activity (GSK3B (human)): 105%
- residual activity (INSRR (human)): 88.2%
- residual activity (IRAK1 (human)): 94.4%
- residual activity (JAK3 JH1 JH2 (human)): 71.8%
- residual activity (MAP3K9 (human)): 101%
- residual activity (MAPK10 (human)): 96.3%
- residual activity (MAPK13 (human)): 98.5%
- residual activity (MAPK14 (human)): 99.5%
- residual activity (MAPK3 (human)): 110%
- residual activity (MARK1 (human)): 93.7%
- residual activity (MARK2 (human)): 82.1%
- residual activity (MARK3 (human)): 104%
- residual activity (MYLK2 (human)): 86.8%
- residual activity (PAK6 (human)): 110%
- residual activity (PHKG1 (human)): 87.6%
- residual activity (PHKG2 (human)): 98.9%
- residual activity (PIM2 (human)): 52.8%
- residual activity (PKN1 (human)): 85.5%
- residual activity (PLK3 (human)): 73.6%
- residual activity (PNCK (human)): 95.1%
- residual activity (PRKCB1 (human)): 95.5%
- residual activity (PRKCG (human)): 89.4%
- residual activity (PRKCZ (human)): 89.2%
- residual activity (PTK2 (human)): 94%
- residual activity (RPS6KA5 KD2 (human)): 88.3%
- residual activity (SIK2 (human)): 107%
- residual activity (ULK1 (human)): 108%
- residual activity (WEE1 (human)): 99.1%
- residual activity (WNK3 (human)): 89.8%

- residual activity (AURKA (human)): 55.4%
- residual activity (AURKB (human)): 81%
- residual activity (CAMK2G (human)): 70.6%
- residual activity (CLK4 (human)): 94.1%
- residual activity (DAPK3 (human)): 82.2%
- residual activity (EPHB1 (human)): 99.9%
- residual activity (ERBB4 (human)): 101%
- residual activity (FGFR2 (human)): 85.8%
- residual activity (FGFR3 (human)): 46.5%
- residual activity (FLT3 (human)): 21.6%
- residual activity (FRK (human)): 51.2%
- residual activity (GRK4 (human)): 97.6%
- residual activity (GRK7 (human)): 99.5%
- residual activity (GSK3B (human)): 14.3%
- residual activity (INSRR (human)): 96.7%
- residual activity (IRAK1 (human)): 67.4%
- residual activity (JAK3 JH1 JH2 (human)): 107%
- residual activity (MAP3K9 (human)): 51.5%
- residual activity (MAPK10 (human)): 83%
- residual activity (MAPK13 (human)): 91.5%
- residual activity (MAPK14 (human)): 99.2%
- residual activity (MAPK3 (human)): 93.7%
- residual activity (MARK1 (human)): 76%
- residual activity (MARK2 (human)): 74.9%
- residual activity (MARK3 (human)): 85.4%
- residual activity (MYLK2 (human)): 55%
- residual activity (PAK6 (human)): 74.8%
- residual activity (PHKG1 (human)): 67.7%
- residual activity (PHKG2 (human)): 96.6%
- residual activity (PIM2 (human)): 93.2%
- residual activity (PKN1 (human)): 96.1%
- residual activity (PLK3 (human)): 96.2%
- residual activity (PNCK (human)): 96.3%
- residual activity (PRKCB1 (human)): 105%
- residual activity (PRKCG (human)): 103%
- residual activity (PRKCZ (human)): 92.2%
- residual activity (PTK2 (human)): 95.9%
- residual activity (RPS6KA5 KD2 (human)): 83.9%
- residual activity (SIK2 (human)): 54.6%
- residual activity (ULK1 (human)): 95.6%
- residual activity (WEE1 (human)): 93.7%
- residual activity (WNK3 (human)): 93%
SMILES: CC(=O)O/N=C1\C(=C2\C(=O)Nc3cc(Br)ccc32)Nc2ccccc21

SMILES: COc1cc2ncnc(N3CCN(C(=O)Nc4ccc(Oc5ccccc5)cc4)CC3)c2cc1OC
- residual activity (AURKA (human)): 79.6%
- residual activity (AURKB (human)): 76.1%
- residual activity (CAMK2G (human)): 100%
- residual activity (CLK4 (human)): 65.6%
- residual activity (DAPK3 (human)): 101%
- residual activity (EPHB1 (human)): 94.3%
- residual activity (ERBB4 (human)): 101%
- residual activity (FGFR2 (human)): 92.4%
- residual activity (FGFR3 (human)): 99.9%
- residual activity (FLT3 (human)): 43.2%
- residual activity (FRK (human)): 90.2%
- residual activity (GRK4 (human)): 94.7%
- residual activity (GRK7 (human)): 95.7%
- residual activity (GSK3B (human)): 99%
- residual activity (INSRR (human)): 96.8%
- residual activity (IRAK1 (human)): 116%
- residual activity (JAK3 JH1 JH2 (human)): 107%
- residual activity (MAP3K9 (human)): 100%
- residual activity (MAPK10 (human)): 98.2%
- residual activity (MAPK13 (human)): 104%
- residual activity (MAPK14 (human)): 81%
- residual activity (MAPK3 (human)): 102%
- residual activity (MARK1 (human)): 99.1%
- residual activity (MARK2 (human)): 97.4%
- residual activity (MARK3 (human)): 80.4%
- residual activity (MYLK2 (human)): 94.6%
- residual activity (PAK6 (human)): 95.2%
- residual activity (PHKG1 (human)): 89.5%
- residual activity (PHKG2 (human)): 128%
- residual activity (PIM2 (human)): 101%
- residual activity (PKN1 (human)): 103%
- residual activity (PLK3 (human)): 91.8%
- residual activity (PNCK (human)): 94.3%
- residual activity (PRKCB1 (human)): 94.5%
- residual activity (PRKCG (human)): 104%
- residual activity (PRKCZ (human)): 96%
- residual activity (PTK2 (human)): 89.4%
- residual activity (RPS6KA5 KD2 (human)): 96.4%
- residual activity (SIK2 (human)): 96%
- residual activity (ULK1 (human)): 110%
- residual activity (WEE1 (human)): 97.5%
- residual activity (WNK3 (human)): 101%

SMILES: COc1cc2ncc(-c3ccccc3)nc2cc1OC
- residual activity (AURKA (human)): 90.3%
- residual activity (AURKB (human)): 74.4%
- residual activity (CAMK2G (human)): 94.5%
- residual activity (CLK4 (human)): 102%
- residual activity (DAPK3 (human)): 84.7%
- residual activity (EPHB1 (human)): 92.8%
- residual activity (ERBB4 (human)): 65.9%
- residual activity (FGFR2 (human)): 103%
- residual activity (FGFR3 (human)): 96%
- residual activity (FLT3 (human)): 65.9%
- residual activity (FRK (human)): 99.3%
- residual activity (GRK4 (human)): 97.8%
- residual activity (GRK7 (human)): 105%
- residual activity (GSK3B (human)): 113%
- residual activity (INSRR (human)): 99.2%
- residual activity (IRAK1 (human)): 98.4%
- residual activity (JAK3 JH1 JH2 (human)): 90.3%
- residual activity (MAP3K9 (human)): 85.4%
- residual activity (MAPK10 (human)): 90.3%
- residual activity (MAPK13 (human)): 89.6%
- residual activity (MAPK14 (human)): 122%
- residual activity (MAPK3 (human)): 97.6%
- residual activity (MARK1 (human)): 92.6%
- residual activity (MARK2 (human)): 112%
- residual activity (MARK3 (human)): 98.2%
- residual activity (MYLK2 (human)): 100%
- residual activity (PAK6 (human)): 82.8%
- residual activity (PHKG1 (human)): 92.4%
- residual activity (PHKG2 (human)): 97.1%
- residual activity (PIM2 (human)): 101%
- residual activity (PKN1 (human)): 104%
- residual activity (PLK3 (human)): 98.3%
- residual activity (PNCK (human)): 98.2%
- residual activity (PRKCB1 (human)): 105%
- residual activity (PRKCG (human)): 101%
- residual activity (PRKCZ (human)): 96.3%
- residual activity (PTK2 (human)): 100%
- residual activity (RPS6KA5 KD2 (human)): 91.8%
- residual activity (SIK2 (human)): 93.1%
- residual activity (ULK1 (human)): 84.5%
- residual activity (WEE1 (human)): 82.8%
- residual activity (WNK3 (human)): 97.5%
